Holding throughout (type): cell-based
Assay [1] has as its target T1, Sodium channel protein type 5 subunit alpha (Homo sapiens, UniProt Q14524). In words: Inhibition of human Nav1.5 expressed in CHO-K1 cells preincubated for 3 mins followed by incubation under atrial fibrillation-mimicking condition at 5 Hz with -85 mV holding potential for 12 sec by automated Qpatch electrophysiological recording. A general note: In patch-clamp work, channel activity is measured electrically.

Assay [2] deals with T1, Sodium channel protein type 5 subunit alpha. The experiment in a line: Inhibition of human Nav1.5 expressed in CHO-K1 cells preincubated for 3 mins followed by incubation under ventricular condition at sinus rate at 1 Hz with -100 mV holding potential for 25 sec by automated Qpatch electrophysiological recording.
The target is the same in assay [3]. In words: Inhibition of human Nav1.5 expressed in CHO-K1 cells preincubated with compound for 3 mins in presence of ATXII followed by incubation under ventricular condition at sinus rate at 1 Hz with -100 mV holding potential for 25 sec by automated Qpatch electrophysiological recording.

One may read the IC50 as the midpoint of a concentration-inhibition curve.

T1 sequence (Q14524 whole entry): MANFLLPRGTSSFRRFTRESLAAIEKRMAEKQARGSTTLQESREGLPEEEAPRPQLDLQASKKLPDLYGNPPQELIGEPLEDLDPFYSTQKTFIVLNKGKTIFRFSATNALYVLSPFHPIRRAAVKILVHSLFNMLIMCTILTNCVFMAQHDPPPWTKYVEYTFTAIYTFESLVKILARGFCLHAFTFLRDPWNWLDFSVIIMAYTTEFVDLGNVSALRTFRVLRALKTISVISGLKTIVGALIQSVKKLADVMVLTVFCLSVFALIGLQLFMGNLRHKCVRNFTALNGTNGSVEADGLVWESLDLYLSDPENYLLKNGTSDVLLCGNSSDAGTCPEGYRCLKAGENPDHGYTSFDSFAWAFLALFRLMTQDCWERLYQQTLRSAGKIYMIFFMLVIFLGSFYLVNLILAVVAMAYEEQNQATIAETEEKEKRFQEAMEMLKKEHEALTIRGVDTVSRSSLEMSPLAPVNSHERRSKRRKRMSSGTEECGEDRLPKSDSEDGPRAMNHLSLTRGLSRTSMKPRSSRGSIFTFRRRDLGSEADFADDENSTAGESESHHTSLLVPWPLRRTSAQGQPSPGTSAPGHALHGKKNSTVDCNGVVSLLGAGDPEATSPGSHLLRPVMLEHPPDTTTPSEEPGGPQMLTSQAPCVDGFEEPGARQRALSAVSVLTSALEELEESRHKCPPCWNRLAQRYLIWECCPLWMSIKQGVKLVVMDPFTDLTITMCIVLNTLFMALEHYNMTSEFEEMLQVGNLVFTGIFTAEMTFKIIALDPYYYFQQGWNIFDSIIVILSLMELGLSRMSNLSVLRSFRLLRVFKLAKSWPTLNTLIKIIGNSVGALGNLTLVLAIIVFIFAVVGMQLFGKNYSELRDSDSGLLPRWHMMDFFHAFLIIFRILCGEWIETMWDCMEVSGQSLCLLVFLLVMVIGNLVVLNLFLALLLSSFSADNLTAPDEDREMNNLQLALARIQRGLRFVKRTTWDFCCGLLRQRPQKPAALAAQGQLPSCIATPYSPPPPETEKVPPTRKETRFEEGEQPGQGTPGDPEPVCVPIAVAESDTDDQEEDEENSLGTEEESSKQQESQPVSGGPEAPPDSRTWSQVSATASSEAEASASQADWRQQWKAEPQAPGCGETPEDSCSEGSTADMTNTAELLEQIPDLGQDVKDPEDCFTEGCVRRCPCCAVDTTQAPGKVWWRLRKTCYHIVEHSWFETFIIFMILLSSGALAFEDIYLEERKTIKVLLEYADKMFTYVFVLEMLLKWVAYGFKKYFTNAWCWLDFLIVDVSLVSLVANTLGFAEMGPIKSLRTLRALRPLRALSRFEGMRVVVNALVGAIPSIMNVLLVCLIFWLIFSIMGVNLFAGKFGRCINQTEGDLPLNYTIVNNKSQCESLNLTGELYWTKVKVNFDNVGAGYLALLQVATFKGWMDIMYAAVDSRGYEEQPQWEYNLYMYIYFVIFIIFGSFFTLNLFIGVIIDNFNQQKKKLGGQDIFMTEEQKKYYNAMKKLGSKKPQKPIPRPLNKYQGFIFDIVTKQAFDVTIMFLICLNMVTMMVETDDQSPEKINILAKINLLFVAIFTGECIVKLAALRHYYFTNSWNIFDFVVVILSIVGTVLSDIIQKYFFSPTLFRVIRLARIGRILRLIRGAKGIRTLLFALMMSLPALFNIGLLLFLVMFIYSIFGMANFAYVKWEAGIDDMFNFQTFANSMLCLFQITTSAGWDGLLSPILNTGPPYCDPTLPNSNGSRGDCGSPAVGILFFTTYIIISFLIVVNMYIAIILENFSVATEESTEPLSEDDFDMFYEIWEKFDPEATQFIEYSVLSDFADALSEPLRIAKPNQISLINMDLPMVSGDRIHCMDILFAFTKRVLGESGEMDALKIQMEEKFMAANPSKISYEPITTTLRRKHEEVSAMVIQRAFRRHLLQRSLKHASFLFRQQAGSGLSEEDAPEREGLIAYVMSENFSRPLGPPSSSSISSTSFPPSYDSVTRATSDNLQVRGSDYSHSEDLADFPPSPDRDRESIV

Molecule `C[C@](O)(CS(N)(=O)=O)c1cccc(-c2nnn(Cc3cc(OC(F)(F)F)ccc3F)n2)n1` displayed a half-maximal inhibitory concentration (IC50) in assay [1] of 0.8 µM.

Take `C[C@@](O)(CS(N)(=O)=O)c1ccc(Cl)c(-c2nnn(Cc3cc(OC(F)(F)F)ccc3F)n2)c1`: the IC50 in assay [1] was 1.3 µM; in assay [2] it was greater than 30 µM; in assay [3], 28 µM.

For the molecule `C[C@@](O)(CS(N)(=O)=O)c1ccc(F)c(-c2nnn(Cc3cc(OC(F)(F)F)ccc3F)n2)c1`, the IC50 in assay [1] was 1 µM; in assay [2], greater than 30 µM; in assay [3] it was 11 µM.

As for `C[C@@](O)(CS(N)(=O)=O)c1cccc(-c2nnn(Cc3cc(OC(F)(F)F)ccc3F)n2)n1`, in assay [1], it took 1 µM to reach half-maximal inhibition (IC50).

With `C[C@](O)(CS(N)(=O)=O)c1ccc(Cl)c(-c2nnn(Cc3cc(OC(F)(F)F)ccc3F)n2)c1`, the figures for the IC50 in assay [1], in assay [2] and in assay [3] were 1.3 µM, 28 µM and 15 µM, respectively.

Source of the values: ChEMBL document CHEMBL6134915, “Novel Sulfonamide Derivatives as Nav1.5 Sodium Channel Blockers for Treating Atrial Fibrillation” (ACS Med Chem Lett, 2025).
